{"source": "paper PMC10175255", "about": "“The cell wall lipoprotein CD1687 acts as a DNA binding protein during deoxycholate-induced biofilm formation in Clostridioides difficile” (NPJ Biofilms and Microbiomes, 2023)", "molecular_target": "T1, CD1687 (Clostridioides difficile, UniProt Q186P2)", "T1 construct": "gene CD630_16870; signal peptide removed, hexahistidine tag kept, expressed in E. coli Bli5 from a pET20-derived plasmid, Ni-NTA purified", "T1 sequence (Q186P2 entry or part of it)": "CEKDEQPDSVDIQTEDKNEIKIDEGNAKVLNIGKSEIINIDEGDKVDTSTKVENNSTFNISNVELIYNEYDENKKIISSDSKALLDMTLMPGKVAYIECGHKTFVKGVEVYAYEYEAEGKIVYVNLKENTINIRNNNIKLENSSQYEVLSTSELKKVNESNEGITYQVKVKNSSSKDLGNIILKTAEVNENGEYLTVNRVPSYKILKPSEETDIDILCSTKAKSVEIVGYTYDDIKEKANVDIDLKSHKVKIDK", "assay": "surface plasmon resonance (Biacore T200), His-tagged protein captured on Ni-NTA chip", "type": "binding"}
{"smiles": "C[C@H](CCC(=O)O)[C@H]1CC[C@H]2[C@@H]3CC[C@@H]4C[C@H](O)CC[C@]4(C)[C@H]3C[C@H](O)[C@]12C", "note": "[deoxycholate]", "values": [{"measurement": "Kd", "value": "1650 ± 580", "unit": "µM"}]}
